“Also recorded” adds a separate entry of the source.
Legend:
SKOV3 (ovarian) cells = assay: IncuCyte PI uptake assay of cytotoxicity; format: cell-based; details: 48 hours of treatment, compared to DMSO control
Description: The cytotoxicity of analogs was determined by using a PI uptake assay. HCC1954, SKBR3 or SKOV3 cells (2,000) were seeded in a 96-well plate. Treatments were prepared in 2% FBS containing media with 1 μM PI, and imaged using the IncuCyte Zoom Live Cell Analysis System equipped with a 10× objective. Phase contrast and fluorescent images were acquired every 2-3 hours for 48 hours. Several parameters are available upon analysis utilizing the IncuCyte Zoom Analysis tools including number of PI positive cells and cell confluence. See FIG. 8 for plots of SKOV3 cell analog cytotoxicity and HCC1954 cell analog cytotoxicity for specified treatments.
Cytotoxicity effects of Myc B and analogs in HER2 cancer cells was studied. Specifically, SKOV3 (ovarian) and HCC1954 (breast) cells were incubated with DMSO (1%) or analog (12.5-50 μM) in DMEM supplemented with 2% FBS and PI (1 μM) using an IncuCyte Zoom Live Cell Analysis System for 48 hours. As shown in FIGS. 10A-Q, graphs depict the number of PI positive for SKOV3 cells (left) and HCC1954 cells (right) over 48 hours of treatment with DMSO or indicated analog (12.5-50 μM).

[1] = system: F-actin in SKOV3 cells expressing LifeAct-GFP; assay: Live cell confocal imaging of LifeAct-GFP reporter (F-actin disruption); format: cell-based; details: 0-2 hours
Description: To visualize effects of analogs on cellular F-actin dynamics, several cancer cell lines were transduced with a lentivirus expressing a green fluorescent protein (GFP) fusion with LifeAct, a 17 amino-acid protein containing the actin-binding domain of a yeast protein. To produce this lentivirus, 500,000 HEK293T cells were seeded on a 6-well plate coated with 0.01 mg/ml of poly-lysine solution. 24 hours later viral packing plasmids Pax2 (1 ug) and MD2G (0.5 ug) were mixed in serum free media with 1 ug of pLenti.PGK.LifeAct-GFP.W (Addgene Catalogue No. 51010), and 10 uL of Xtreme-Gene (Roche, Germany) were then added to the master mix. The mix was vortexed and incubated at room temperature for 15 minutes before being added in a drop-wise manner to HEK293T cells. After 24 hours, HCC1954, SKBR3 or SKOV3 cells were seeded in a 6-well plate and incubated at 37° C. for 24 hours. The virus-containing media from the HEK293T cells media was collected and filtered (0.45 μm). HCC1954, SKBR3 or SKOV3 cells were incubated with 0.5 mL virus-containing media, and incubated at 37° C. for 2-3 days. Efficiency of transduction was determined by visualizing GFP positive cells using fluorescence microscopy. […]
Disruption of filamentous actin (F-actin) in HER2 cancer cells was measured using live cell confocal imaging of LifeAct-GFP reporter. […]

[2] = system: HER2 cancer cells SKOV3 (ovarian) and HCC1954 (breast); assay: Growth suppression of HER2 cancer cells (cell confluence change, live cell imaging); format: cell-based; details: analogs 25 μM, Lapatinib 25 μM as comparator
Description: Growth suppression of HER2 cancer cells by select Myc B analogs was studied to determine rate of growth of HER2 cancer cells (SKOV3 (ovarian) and HCC1954 (breast)) as measured using a live cell imaging system. Findings are shown in FIGS. 9A and 9B, SKOV3 Ovarian cancer and HCC1954 Breast cancer cells were incubated with DMSO (1%), Myc B (25 nM), or the indicated analogs (25 μM), or with HER2 inhibitor Lapatinib (25 μM) in DMEM supplemented with 2% FBS and PI (1 μM) using an IncuCyte Zoom Live Cell Analysis System for 48 hours. Graphs depict the percent change in confluence at 48 hours compared to time zero (significant differences from DMSO *p<0.05, **p<0.01, ***p<0.001).

F-actin in SKOV3 cells = assay: F-actin staining (TRITC-Phalloidin) fluorescence micrographs; format: cell-based; details: 2 or 20 hours
Description: Referring to FIG. 12, representative fluorescence micrographs are shown of SKOV3 cells treated with DMSO (1%), Myc B (25 nM), or indicated analog (10 μM) for 2 or 20 hours prior to staining of F-actin (TRITC-Phalloidin). the effects of Myc B analog treatments over 20 hours are compared with DMSO and Myc B in HER2 cancer cells. […] As described in Example 37, disruption of filamentous actin (F-actin) in HER2 cancer cells was measured using live cell confocal imaging of LifeAct-GFP reporter. The LifeAct-GFP signal in DMSO control conditions indicates the localization of F-actin structures in SKOV3 cells. […] Compounds described herein can be used to treat such actin-related problems because of their efficacy in disrupting actin, as shown by studies described in the Examples and Figures herein.

[3] = system: SKBR3, MDA-MB-453 and SKOV3 cells; assay: Cell viability, Trypan blue exclusion assay; format: cell-based; details: multiple cancer cell lines
Description: Referring to FIG. 1A-C, the cytotoxicity of MycB on HER2+ breast and ovarian cancer cells was measured. Specifically, data is provided regarding the percentage of viable cells following treatment with MycB at 0-200 nM concentrations for 48 hours using SKBR3, MDA-MB-453 and SKOV3 cells. Cell viability was determined using Trypan blue exclusion assay (both unstained and stained cells were counted on a hemocytometer; values are mean±SEM of triplicate experiments).

[4] = system: HER2+ SKOV3 subcutaneous tumor xenograft; assay: SKOV3 subcutaneous tumor xenograft study; format: in vivo, Rag2−/−:IL2Rγc−/− mice
Description: Referring to FIGS. 3A and 3B, a proof-of-principle study of the anticancer effects of MycB in a SKOV3 tumor xenograft model. […] Following the detection of palpable tumors, mice were randomized between vehicle control (DMSO), MycB (100 ng, intratumoral), TZ (50 μg, intraperitoneal), or both MycB and TZ (same doses/delivery) twice weekly until endpoint was reached (n=6/group; significant differences between treatment groups based on ANOVA are indicated by *P<0.05, **** P<0.0001).
The anti-tumor effects of MycB analogs are also expected to extend to other cancer types with selection of appropriate antibodies for these tumor types with novel ADC formulations.

[5] = system: HER2+ cell migration and invasion (SKOV3 cells); assay: Cell migration and invasion assays (IncuCyte scratch wound, spheroid reattachment); format: cell-based; details: sub-lethal doses (low nM)
Description: Effects of analogs on cellular motility including invasion and migration were evaluated using the IncuCyte Live Cell System. 25,000 SKOV3 cells were plated on a 96-well ImageLock coated with 10 μg/ml of human fibronectin. Once the cells reached approximately 90% confluence a scratch/wound is induced using the IncuCyte Woundmaker (a 96-pin would making tool). The cells were then rinsed with sterile PBS then media, with or without treatment was added. To evaluate invasion 5% Matrigel was added. The plate was then inserted into the IncuCyte Zoom Live Cell Analysis System and imaged at 10× magnification every 2-3 hours following until wound closure or 48 hours.
The percentage of wound confluence, for migration, or would density, for invasion, was determined through the IncuCyte ZOOM Scratch Wound Analysis tool adjusted to cell line dependent processing definitions. See FIGS. 5 to 6 for images and graphical results.
A three-dimensional (3D) spheroid reattachment assay was performed to further evaluate analog effects on migration and invasion. A round bottom 96-well was coated with polyhydroxyehylmethacrylate (poly-hema) to create a non-adhesive conditions upon which cancer cells can form a 3D spheroid. […]
The percentage of migration/invasion was calculated using ImageJ (NIH) by measuring the area of migration or invasion and subtracting the intial size of the spheroid. […]

## CCCO[C@H](CC)C[C@H](OC)[C@@H](C)CC[C@@H](OC(=O)C(C)C)[C@H](C)[C@H](OC)[C@H](C)/C=C/N(C)C=O [4f]
SKOV3 (ovarian) cells
  Cytotoxicity: number of PI positive cells (PI uptake): significant cytoxicity response
[1]; analogs 10 μM
  F-actin structures (LifeAct-GFP signal): limited effects at early time points
[2]
  Growth suppression: percent change in confluence at 48 hours compared to time zero: potent analog was seen in 4f (2534), with comparable effects of the HER2 inhibitor Lapatinib

## CCC(=O)O[C@H](CC)C[C@H](OC)[C@@H](C)CC[C@@H](OC(=O)C(C)C)[C@H](C)[C@H](OC)[C@H](C)/C=C/N(C)C=O [4g]
F-actin in SKOV3 cells; analogs 10 μM
  Localization of endogenous F-actin (TRITC-Phalloidin): most highly disruptive of F-actin

## CCC(=O)O[C@H](CC)C[C@H](OC)[C@@H](C)CC[C@@H](OC(=O)[C@@H](C)OC)[C@H](C)[C@H](OC)[C@H](C)/C=C/N(C)C=O [4h]
F-actin in SKOV3 cells; analogs 10 μM
  Localization of endogenous F-actin (TRITC-Phalloidin): most highly disruptive of F-actin

## COC[C@@H](OC)C(=O)O[C@H](CC[C@H](C)[C@@H](C[C@@H]1OC(=O)C[C@@H](O)C/C=C/C(=O)[C@H](C)[C@H](OC)c2coc(n2)-c2coc(n2)-c2coc(n2)/C=C/C[C@H](OC)[C@H]1C)OC)[C@H](C)[C@H](OC(C)=O)[C@H](C)/C=C/N(C)C=O [MycB, Mycalolide B]
[3]
  Cytotoxicity in cancer cell lines: cytotoxicity in multiple cancer cell lines
SKOV3 (ovarian) cells
  Cytotoxicity: number of PI positive cells (PI uptake): significant increase in PI uptake
[1]; Myc B 25 nM
  F-actin structures (LifeAct-GFP signal): time-dependent collapse of F-actin into large aggregates near the cell periphery
[4]; MycB 100 ng intratumoral in combination with TZ 50 μg intraperitoneal, twice weekly
  Growth of SKOV3 tumors (tumor volume and mass): reduced growth of SKOV3 tumors; also recorded: potential improvement when combined with TZ (Herceptin) on limiting tumor growth and metastasis
[4]; MycB alone, 100 ng intratumoral twice weekly
  Growth of SKOV3 tumors (tumor volume and mass): reduced growth of SKOV3 tumors; also recorded: anti-tumor effects of MycB on tumor volume and mass were demonstrated
F-actin in SKOV3 cells; Myc B 25 nM
  Localization of endogenous F-actin (TRITC-Phalloidin): disruption of F-actin at the cell periphery and collapse into large aggregates in the cytoplasm of the cells
[5]
  Inhibition of cell motility and invasiveness: significant inhibition of cell motility and invasiveness
